The subject of one assay is L1210. Description: Cytostatic activity against L1210 cell line. The class given is functional, cell-based. The following applies: Mus musculus.
In another assay the test system is CCRF-CEM. Kind of assay: Cytostatic activity to the compound against CEM cell line. The following applies: Homo sapiens. The class given is functional, cell-based.
A further assay deals with C3H/3T3. Description: Minimal cytotoxic concentration to cause an alteration in C3H/3T3 cell line morphology. The class given is functional. As to conditions: Mus musculus.
Another assay relates to MOLT-4. Description: Cytostatic activity to the compound against Molt4/C8 cell line. The class given is functional, cell-based. The following applies: Homo sapiens.
In assay [1] the test system is Human immunodeficiency virus 2. Kind of assay: Effective concentration against human immunodeficiency virus type 2. The class given is functional, organism-based.
Assay [2] concerns Staphylococcus aureus. Description: Minimum inhibitory concentration against glycopeptide intermediate-resistant 3797 Staphylococcus aureus. The format is functional.
Assay [3] concerns Enterococcus faecium. Kind of assay: Minimum inhibitory concentration against glycopeptide susceptible enterococci 568 Enterococcus faecium. The format is functional.
Assay [4] has as its system Enterococcus faecalis. Description: Minimum inhibitory concentration against 559 glycopeptide susceptible enterococci Enterococcus faecalis. The format is functional.
Assay [5] deals with Human immunodeficiency virus 1. Kind of assay: Effective concentration against human immunodeficiency virus type 1. The class given is functional, organism-based.
For assay [6], the system named is Staphylococcus epidermidis. Description: Minimum inhibitory concentration against 533 Staphylococcus epidermidis. The class given is functional.
Assay [7] has as its system Moloney murine sarcoma virus. Description: Effective concentration against Moloney sarcoma virus. The format is functional, organism-based, Viruses.
Assay [8] relates to Staphylococcus aureus. Kind of assay: Minimum inhibitory concentration against glycopeptide intermediate-resistant 3798 Staphylococcus aureus. The class given is functional.
Assay [9] relates to Enterococcus faecalis. Description: Minimum inhibitory concentration against glycopeptide resistant enterococci 560 Enterococcus faecalis. The class given is functional.
Assay [10] deals with Enterococcus faecium. Kind of assay: Minimum inhibitory concentration against glycopeptide resistant enterococci 569 Enterococcus faecium. The class given is functional.
Assay [11] has as its system Staphylococcus haemolyticus. Kind of assay: Minimum inhibitory concentration against 602 Staphylococcus haemolyticus. The class given is functional.

As usually defined, the IC50 is the concentration at which inhibition is half-maximal. The term EC50 denotes the concentration needed to bring the measured effect to its halfway point. The term MIC denotes the least concentration at which growth counts as inhibited.

Values after ≈ are worked out from the molar mass of the structure shown. Where only a bound is given, the exact number is not on record here.

In the case of `CN[C@H](CC(C)C)C(=O)N[C@H]1C(=O)N[C@@H](CC(N)=O)C(=O)N[C@H]2C(=O)N[C@H]3C(=O)N[C@H](C(=O)N[C@H](C(=O)NC4C5CC6CC(C5)CC4C6)c4cc(O)cc(O)c4-c4cc3ccc4O)[C@H](O)c3ccc(cc3)Oc3cc2cc(c3O)Oc2ccc(cc2)[C@H]1O` (stereo not given in full), the IC50 stood at 129 µM in the assay on L1210, 185 µM with CCRF-CEM and 185 µM in the assay with MOLT-4. The same compound gave an MCC with C3H/3T3 of 100 µg/mL. For the same compound, the EC50 came out at 21.7 µM in assay [1], 8.5 µM in assay [5] and 14 µM in [7]. Further, the MIC in the assay with Staphylococcus aureus [2] is 16 µg/mL (≈ 13.2 µM); against Enterococcus faecium [3] it was 8 µg/mL (≈ 6.62 µM); against Enterococcus faecalis [4] it was 16 µg/mL (≈ 13.2 µM); in [6], 16 µg/mL (≈ 13.2 µM); against Staphylococcus aureus [8] it was 16 µg/mL (≈ 13.2 µM); with Enterococcus faecalis [9], 32 µg/mL (≈ 26.5 µM). Also, the MIC in the assay on Enterococcus faecium [10] was 32 µg/mL (≈ 26.5 µM); in assay [11], 16 µg/mL (≈ 13.2 µM).
Turning to `CN[C@H](CC(C)C)C(=O)N[C@H]1C(=O)N[C@@H](CC(N)=O)C(=O)N[C@H]2C(=O)N[C@H]3C(=O)N[C@H](C(=O)N[C@H](C(=O)NCCCCCCCCCCN)c4cc(O)cc(O)c4-c4cc3ccc4O)[C@H](O)c3ccc(cc3)Oc3cc2cc(c3O)Oc2ccc(cc2)[C@H]1O`, the results for the IC50 with L1210, in the assay with CCRF-CEM and in the assay with MOLT-4 were 146 µM, 109 µM and 106 µM, respectively. In addition, the MCC with C3H/3T3 was 100 µg/mL. Also, the EC50 in assay [1] was above 25 µM; in [5] it was 15 µM; in [7], 14 µM. The MIC came to 16 µg/mL (≈ 13 µM) in the assay on Staphylococcus aureus [2]; 8 µg/mL (≈ 6.51 µM) against Enterococcus faecium [3]; 16 µg/mL (≈ 13 µM) in the assay with Enterococcus faecalis [4]; 16 µg/mL (≈ 13 µM) in assay [6]; 16 µg/mL (≈ 13 µM) against Staphylococcus aureus [8]; 32 µg/mL (≈ 26 µM) in the assay with Enterococcus faecalis [9]. For the same compound, the figures for the MIC (against Enterococcus faecium [10]; in [11]) were 64 µg/mL (≈ 52.1 µM) and 16 µg/mL (≈ 13 µM), respectively.
Take `NC(=O)C[C@@H]1NC(=O)[C@H](N)[C@H](O)c2ccc(c(Cl)c2)Oc2cc3cc(c2O)Oc2ccc(cc2)[C@@H](O)[C@@H]2NC(=O)[C@H](NC(=O)[C@@H]3NC1=O)c1ccc(O)c(c1)-c1c(O)cc(O)cc1[C@@H](C(=O)NC1C3CC4CC(C3)CC1C4)NC2=O` (stereo not given in full): the IC50 in the assay on L1210, in the assay with CCRF-CEM and with MOLT-4 was above 250 µM each time. This compound also came in with an MCC in the assay with C3H/3T3 of at least 100 µg/mL. Besides, the EC50 in assay [1] is 50 µM; in assay [5], 50 µM; in assay [7] it was 22 µM. Moreover, the MIC is above 32 µg/mL in the assay on Staphylococcus aureus [2]; above 64 µg/mL against Enterococcus faecium [3]; above 64 µg/mL against Enterococcus faecalis [4]; above 32 µg/mL in assay [6]; above 32 µg/mL against Staphylococcus aureus [8]; above 64 µg/mL against Enterococcus faecalis [9]. Moreover, the MIC against Enterococcus faecium [10] is above 64 µg/mL; in [11], above 32 µg/mL.
For the compound `NC(=O)C[C@@H]1NC(=O)[C@H](N)[C@H](O)c2ccc(c(Cl)c2)Oc2cc3cc(c2O)Oc2ccc(cc2Cl)[C@@H](O)[C@@H]2NC(=O)[C@H](NC(=O)[C@@H]3NC1=O)c1ccc(O)c(c1)-c1c(O)cc(O)cc1[C@@H](C(=O)NCC13CC4CC(CC(C4)C1)C3)NC2=O`, the IC50 was at least 250 µM in the assay with L1210, at least 250 µM with CCRF-CEM and 178 µM with MOLT-4. Besides, the MCC in the assay with C3H/3T3 is at least 100 µg/mL. The values for the EC50 in assay [1], in assay [5] and in assay [7] were 30 µM, 20 µM and 27 µM, respectively. Further, the MIC is above 32 µg/mL in the assay on Staphylococcus aureus [2]; above 64 µg/mL against Enterococcus faecium [3]; above 64 µg/mL against Enterococcus faecalis [4]; above 32 µg/mL in [6]; above 32 µg/mL against Staphylococcus aureus [8]; above 64 µg/mL in the assay with Enterococcus faecalis [9]. Besides, the MIC was above 64 µg/mL against Enterococcus faecium [10] and above 32 µg/mL in assay [11].

The record behind these values is ChEMBL document CHEMBL1139533, “Structure-activity relationship studies of a series of antiviral and antibacterial aglycon derivatives of the glycopeptide antibiotics vancomycin, eremomycin, and dechloroeremomycin” (J Med Chem, 2005).
